Assay results taken from paper PMC12444472, “BCI inhibits MKP3 by targeting the kinase-binding domain and disrupting ERK2 interaction” (The Journal of Biological Chemistry, 2025).

Key:
Test in all cases: NMR titration (1H-15N HSQC)
Assay type in all cases: binding
MKP3^KBD = molecular target: T1, MKP3^KBD (Homo sapiens, UniProt Q16828); conditions: 15N-labeled MKP3^KBD titrated with BCI, analysed at 1:4 M ratio
T1 construct: MKP3(1–154) (MKP3^KBD); made in house; host or cells: Escherichia coli BL21(DE3)
T1 sequence (Q16828 1-154): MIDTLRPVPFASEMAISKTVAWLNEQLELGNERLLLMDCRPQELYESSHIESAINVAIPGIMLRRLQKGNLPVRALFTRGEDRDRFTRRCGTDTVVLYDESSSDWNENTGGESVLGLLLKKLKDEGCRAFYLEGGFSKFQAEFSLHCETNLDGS
Description: (§1) NMR data were collected at 298 K on a Bruker AVANCE NEO 800 MHz spectrometer (Bruker BioSpin) equipped with a ^1H&^19F/^13C/^15N TCI cryogenic probe. Backbone resonances of MKP3^1–154 were assigned using 2D/3D experiments, including 2D ^1H–^15N HSQC and 3D ^1H/^13C/^15N CBCA(CO)NH, HNCACB, HNCO, and HN(CA)CO, performed with uniformly ^13C/^15N labeled protein at a final concentration of 0.39 mM in buffer containing 20 mM imidazole (pH 6.0), 100 mM NaCl, 5 mM DTT, 0.5 mM EDTA, and 5% (v/v) D2O. The buffer used for backbone resonance assignment was similar to that used for the previously reported NMR structure ([15]). NMR titration experiments were conducted using ^15N-labeled MKP3^1–154, MKP3^14–152, MKP3^204–350, MKP1^1–141, MKP2^5–159, MKPX^1–140, MKP4^1–143, and MKP5^139–287. 2D ^1H–^15N HSQC spectra of ^15N-labeled MKPs^KBD (0.1 mM) were acquired in the absence and presence of BCI (50 mM stock in DMSO-d6) in buffer containing 50 mM KH2PO4–K2HPO4 (pH 7.2), 100 mM KCl, 1 mM Tris(2-carboxyethyl)phosphine hydrochloride, 1 mM EDTA, and 5% (v/v) D2O. Control experiments, in which only the corresponding volume of DMSO-d6 was added to ^15N-labeled proteins, were performed to exclude possible effects of DMSO on the interactions. For ^15N T1 measurements, the relaxation delay times were set to 20 (×2), 100, 200 (×2), 300, 400, 600 (×2), 800, 1200, and 1600 ms. For ^15N T2 measurements, the delay times were 7.84, 15.68 (×2), 23.52, 31.36 (×2), 39.2, 47.04 (×2), 54.88, 62.72, 78.4, 94.08, and 109.76 ms. The relaxation rates R1 (1/T1) and R2 (1/T2) for each residue were determined by fitting the peak intensities from spectra acquired at the various delay times to a single-exponential decay function: I/I0 = exp(-R1,2·t), where I0 is the intensity at t = 0, and I is the intensity at a delay time t. Repeated measurements were used to estimate the uncertainties of the R1 and R2 values via Monte Carlo analysis. Heteronuclear steady-state ^1H–^15N NOE experiments were acquired in an interleaved mode, with 5 s of ^1H saturation for NOE build-up and 5 s of relaxation delay for the reference spectra. Repeated experiments were performed to estimate uncertainties, and the propagated error for each NOE value was calculated using the following equation: σNOE = NOE × ((σsat/Isat)^2+(σunsat/Iunsat)^2)^1/2, where σsat and σunsat are the SDs of the saturated and unsaturated spectra, respectively, and Isat and Iunsat are the corresponding signal intensities. NMR data were processed using TopSpin 4.1.1 (Bruker BioSpin) or NMRPipe ([54]) and analyzed with POKY ([55]).

MKP1^KBD = molecular target: T2, MKP1^KBD (Homo sapiens, UniProt P28562); conditions: molar ratio 1:15
T2 construct: MKP1(1–141) (MKP1^KBD); made in house; host or cells: Escherichia coli BL21(DE3)
T2 sequence (P28562 1-141): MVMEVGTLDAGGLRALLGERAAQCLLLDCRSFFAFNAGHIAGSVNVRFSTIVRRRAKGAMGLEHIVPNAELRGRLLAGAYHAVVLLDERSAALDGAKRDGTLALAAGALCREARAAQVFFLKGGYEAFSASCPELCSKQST
Description: as §1

MKP5^KBD = molecular target: T3, MKP5^KBD (Homo sapiens, UniProt Q9Y6W6); conditions: molar ratio 1:5
T3 construct: MKP5(139–287) (MKP5^KBD); made in house; host or cells: Escherichia coli BL21(DE3)
T3 sequence (Q9Y6W6 139-287): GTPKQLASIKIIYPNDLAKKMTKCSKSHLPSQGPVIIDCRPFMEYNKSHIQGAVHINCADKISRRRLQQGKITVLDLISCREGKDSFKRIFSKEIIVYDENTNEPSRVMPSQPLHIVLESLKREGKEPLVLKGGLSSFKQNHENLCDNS
Description: as §1

MKP4^KBD = molecular target: T4, MKP4^KBD (Homo sapiens, UniProt Q99956); conditions: molar ratio 1:15
T4 construct: MKP2^5–159, MKPX^1–140, MKP4^1–143, and MKP5^139–287; made in house; host or cells: Escherichia coli BL21(DE3)
T4 sequence (Q99956 1-143): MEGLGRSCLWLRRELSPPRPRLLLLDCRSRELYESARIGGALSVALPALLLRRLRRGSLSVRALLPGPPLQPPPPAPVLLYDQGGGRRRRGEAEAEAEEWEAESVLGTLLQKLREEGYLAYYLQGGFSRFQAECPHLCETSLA
Description: as §1

MKP3^CD = molecular target: T5, MKP3^CD (Homo sapiens, UniProt Q16828)
T5 construct: ^15N-labeled MKP3^1–154, MKP3^14–152, MKP3^204–350; made in house; host or cells: Escherichia coli BL21(DE3)
T5 sequence (Q16828 204-350): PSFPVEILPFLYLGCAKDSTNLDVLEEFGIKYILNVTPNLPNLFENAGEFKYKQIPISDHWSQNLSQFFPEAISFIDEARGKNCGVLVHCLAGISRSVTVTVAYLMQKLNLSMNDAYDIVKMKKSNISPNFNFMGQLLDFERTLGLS
Description: as §1

MKPX^KBD = molecular target: T6, MKPX^KBD (Homo sapiens, UniProt Q16829); conditions: molar ratio 1:2
T6 construct: MKPX(1–140) (MKPX^KBD); made in house; host or cells: Escherichia coli BL21(DE3)
T6 sequence (Q16829 1-140 isoform Q16829-2): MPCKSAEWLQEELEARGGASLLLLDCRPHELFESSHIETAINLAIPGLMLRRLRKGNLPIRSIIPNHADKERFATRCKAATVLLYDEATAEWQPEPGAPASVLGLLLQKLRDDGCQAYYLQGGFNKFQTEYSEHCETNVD
Description: as §1

O=C1/C(=C/c2ccccc2)C(NC2CCCCC2)c2ccccc21 (stereo not shown) [BCI, (E)-2-benzylidene-3-(cyclohexylamino)-2,3-dihydro-1H-inden-1-one]
perturbation of NMR spectrum (MKP3^KBD): significant peak broadening
perturbation of NMR spectrum (MKP1^KBD): No significant NMR peak perturbation
perturbation of NMR spectrum (MKP5^KBD): Significant peak broadening
perturbation of NMR spectrum (MKP4^KBD): No significant NMR peak perturbation
perturbation of NMR spectrum (MKP3^CD; excess BCI, without DMSO (low-activity state)): no detectable interaction
perturbation of NMR spectrum (MKP3^CD; with 25% DMSO (high-activity state)): failed to perturb the spectrum
perturbation of NMR spectrum (MKPX^KBD): Significant peak broadening
